Experimental data reported in ChEMBL document CHEMBL4028852, “Design of a Chemical Probe for the Bromodomain and Plant Homeodomain Finger-Containing (BRPF) Family of Proteins” (J Med Chem, 2017).
Values after ≈ are worked out from the molar mass of the structure shown.

How the values were obtained:
[1] = molecular target: T1, Transcription intermediary factor 1-alpha (Homo sapiens, UniProt O15164); assay: Inhibition of TRIM24 (unknown origin) using tetra-acetylated histone 4/ mono-acetylated K14 histone 3 as substrate after 30 mins by alphascreen assay
T1 sequence (O15164 whole entry): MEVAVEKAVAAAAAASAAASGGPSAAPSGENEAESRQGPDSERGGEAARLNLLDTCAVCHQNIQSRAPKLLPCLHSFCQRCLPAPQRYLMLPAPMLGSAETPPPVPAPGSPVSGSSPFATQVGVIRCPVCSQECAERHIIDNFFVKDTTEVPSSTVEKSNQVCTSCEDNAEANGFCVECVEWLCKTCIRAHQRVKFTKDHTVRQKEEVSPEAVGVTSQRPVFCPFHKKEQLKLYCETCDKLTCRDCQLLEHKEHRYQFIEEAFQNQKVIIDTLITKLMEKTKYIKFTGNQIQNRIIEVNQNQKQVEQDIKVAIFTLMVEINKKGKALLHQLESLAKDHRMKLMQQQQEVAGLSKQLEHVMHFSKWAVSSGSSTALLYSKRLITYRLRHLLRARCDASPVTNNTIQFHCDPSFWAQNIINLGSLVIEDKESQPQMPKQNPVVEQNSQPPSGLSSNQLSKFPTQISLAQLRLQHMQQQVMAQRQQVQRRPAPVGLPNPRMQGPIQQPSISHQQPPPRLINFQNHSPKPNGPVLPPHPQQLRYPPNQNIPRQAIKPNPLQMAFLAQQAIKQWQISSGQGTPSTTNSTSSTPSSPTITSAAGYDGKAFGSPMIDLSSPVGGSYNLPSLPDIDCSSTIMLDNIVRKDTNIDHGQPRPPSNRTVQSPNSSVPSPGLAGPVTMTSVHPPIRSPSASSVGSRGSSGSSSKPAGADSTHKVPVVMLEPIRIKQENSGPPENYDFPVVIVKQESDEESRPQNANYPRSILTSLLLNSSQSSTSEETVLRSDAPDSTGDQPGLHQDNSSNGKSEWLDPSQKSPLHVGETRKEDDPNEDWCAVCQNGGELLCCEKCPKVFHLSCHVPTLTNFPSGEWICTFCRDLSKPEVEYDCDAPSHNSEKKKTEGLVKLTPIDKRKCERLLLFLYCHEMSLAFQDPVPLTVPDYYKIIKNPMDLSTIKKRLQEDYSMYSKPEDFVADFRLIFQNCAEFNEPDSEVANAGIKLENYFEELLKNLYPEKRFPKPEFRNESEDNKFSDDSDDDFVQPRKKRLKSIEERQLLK

[2] = molecular target: T2, Bromodomain-containing protein 9 (Homo sapiens, UniProt Q9H8M2); assay: Binding affinity to BRD9 (unknown origin) by isothermal titration calorimetry
T2 sequence (Q9H8M2 whole entry): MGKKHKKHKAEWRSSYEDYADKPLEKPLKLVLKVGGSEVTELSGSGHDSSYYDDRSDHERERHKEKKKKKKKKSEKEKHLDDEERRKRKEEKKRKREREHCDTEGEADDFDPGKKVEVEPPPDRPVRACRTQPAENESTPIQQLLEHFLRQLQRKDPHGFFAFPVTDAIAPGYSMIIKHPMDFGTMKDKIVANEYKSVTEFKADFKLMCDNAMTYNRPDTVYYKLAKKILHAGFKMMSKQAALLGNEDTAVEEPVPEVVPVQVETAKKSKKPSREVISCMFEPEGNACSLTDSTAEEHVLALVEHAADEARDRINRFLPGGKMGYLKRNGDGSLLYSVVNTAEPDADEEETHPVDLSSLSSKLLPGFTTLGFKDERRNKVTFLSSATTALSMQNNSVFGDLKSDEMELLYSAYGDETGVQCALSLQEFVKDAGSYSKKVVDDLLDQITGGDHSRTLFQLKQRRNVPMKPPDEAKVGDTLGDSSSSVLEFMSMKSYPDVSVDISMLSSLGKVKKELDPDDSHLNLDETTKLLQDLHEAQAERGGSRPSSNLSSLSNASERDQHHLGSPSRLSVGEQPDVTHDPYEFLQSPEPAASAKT

[3] = Inhibition of cell proliferation of human RERF-LC-Sq1 cells after 72 hrs by MTS assay; assay type: functional; settings: RERF-LC-Sq1, 72 h
[4] = Oral bioavailability in CD1 mouse at 3 mg/kg by UPLC-MS/MS analysis; assay type: ADME, organism-based; settings: in vivo
Cav1.2 = Cav1.2 (Homo sapiens, UniProt Q13936); assay: Inhibition of Cav1.2 (unknown origin) at 30 uM
[5] = Fraction of drug absorbed in CD1 mouse at 3 mg/kg, po by UPLC-MS/MS analysis; assay type: ADME, organism-based; settings: in vivo, read-out: Fabs
[6] = Inhibition of CYP450 (unknown origin); assay type: ADME; settings: human
[7] = Aqueous solubility of compound; assay type: physicochemical; settings: buffer
[8] = molecular target: T3, Bromodomain-containing protein 1 (Homo sapiens, UniProt O95696); assay: Inhibition of His-tagged BRPF2 (unknown origin) after 30 mins by alphaScreen assay
T3 sequence (O95696 whole entry): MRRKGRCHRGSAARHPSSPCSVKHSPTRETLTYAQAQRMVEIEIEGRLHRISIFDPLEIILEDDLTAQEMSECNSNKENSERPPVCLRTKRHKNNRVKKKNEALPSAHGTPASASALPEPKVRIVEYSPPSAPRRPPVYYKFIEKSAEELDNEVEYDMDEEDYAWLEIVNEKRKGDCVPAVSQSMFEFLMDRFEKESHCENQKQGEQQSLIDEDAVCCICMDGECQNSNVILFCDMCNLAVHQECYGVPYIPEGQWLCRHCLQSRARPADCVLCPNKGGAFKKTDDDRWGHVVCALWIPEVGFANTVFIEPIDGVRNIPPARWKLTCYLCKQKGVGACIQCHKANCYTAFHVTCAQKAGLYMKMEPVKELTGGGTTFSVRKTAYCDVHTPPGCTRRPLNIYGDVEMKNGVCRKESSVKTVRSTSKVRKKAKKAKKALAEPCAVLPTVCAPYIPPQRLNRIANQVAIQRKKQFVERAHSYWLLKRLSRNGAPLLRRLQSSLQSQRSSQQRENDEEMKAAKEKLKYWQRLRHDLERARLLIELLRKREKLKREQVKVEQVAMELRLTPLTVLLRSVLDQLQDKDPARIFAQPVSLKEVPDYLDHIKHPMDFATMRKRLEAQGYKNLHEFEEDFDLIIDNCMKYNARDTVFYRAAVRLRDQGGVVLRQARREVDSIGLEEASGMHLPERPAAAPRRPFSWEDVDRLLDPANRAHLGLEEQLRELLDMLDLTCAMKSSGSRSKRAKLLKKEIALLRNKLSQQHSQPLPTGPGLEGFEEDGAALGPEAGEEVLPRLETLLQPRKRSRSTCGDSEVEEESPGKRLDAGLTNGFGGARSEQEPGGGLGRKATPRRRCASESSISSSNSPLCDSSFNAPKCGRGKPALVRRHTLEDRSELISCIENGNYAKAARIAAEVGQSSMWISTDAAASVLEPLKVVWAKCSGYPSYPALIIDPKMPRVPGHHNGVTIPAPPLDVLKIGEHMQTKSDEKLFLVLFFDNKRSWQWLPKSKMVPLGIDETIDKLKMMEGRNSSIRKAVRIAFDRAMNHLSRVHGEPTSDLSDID

Sequence of Cav1.2 (Q13936 whole entry): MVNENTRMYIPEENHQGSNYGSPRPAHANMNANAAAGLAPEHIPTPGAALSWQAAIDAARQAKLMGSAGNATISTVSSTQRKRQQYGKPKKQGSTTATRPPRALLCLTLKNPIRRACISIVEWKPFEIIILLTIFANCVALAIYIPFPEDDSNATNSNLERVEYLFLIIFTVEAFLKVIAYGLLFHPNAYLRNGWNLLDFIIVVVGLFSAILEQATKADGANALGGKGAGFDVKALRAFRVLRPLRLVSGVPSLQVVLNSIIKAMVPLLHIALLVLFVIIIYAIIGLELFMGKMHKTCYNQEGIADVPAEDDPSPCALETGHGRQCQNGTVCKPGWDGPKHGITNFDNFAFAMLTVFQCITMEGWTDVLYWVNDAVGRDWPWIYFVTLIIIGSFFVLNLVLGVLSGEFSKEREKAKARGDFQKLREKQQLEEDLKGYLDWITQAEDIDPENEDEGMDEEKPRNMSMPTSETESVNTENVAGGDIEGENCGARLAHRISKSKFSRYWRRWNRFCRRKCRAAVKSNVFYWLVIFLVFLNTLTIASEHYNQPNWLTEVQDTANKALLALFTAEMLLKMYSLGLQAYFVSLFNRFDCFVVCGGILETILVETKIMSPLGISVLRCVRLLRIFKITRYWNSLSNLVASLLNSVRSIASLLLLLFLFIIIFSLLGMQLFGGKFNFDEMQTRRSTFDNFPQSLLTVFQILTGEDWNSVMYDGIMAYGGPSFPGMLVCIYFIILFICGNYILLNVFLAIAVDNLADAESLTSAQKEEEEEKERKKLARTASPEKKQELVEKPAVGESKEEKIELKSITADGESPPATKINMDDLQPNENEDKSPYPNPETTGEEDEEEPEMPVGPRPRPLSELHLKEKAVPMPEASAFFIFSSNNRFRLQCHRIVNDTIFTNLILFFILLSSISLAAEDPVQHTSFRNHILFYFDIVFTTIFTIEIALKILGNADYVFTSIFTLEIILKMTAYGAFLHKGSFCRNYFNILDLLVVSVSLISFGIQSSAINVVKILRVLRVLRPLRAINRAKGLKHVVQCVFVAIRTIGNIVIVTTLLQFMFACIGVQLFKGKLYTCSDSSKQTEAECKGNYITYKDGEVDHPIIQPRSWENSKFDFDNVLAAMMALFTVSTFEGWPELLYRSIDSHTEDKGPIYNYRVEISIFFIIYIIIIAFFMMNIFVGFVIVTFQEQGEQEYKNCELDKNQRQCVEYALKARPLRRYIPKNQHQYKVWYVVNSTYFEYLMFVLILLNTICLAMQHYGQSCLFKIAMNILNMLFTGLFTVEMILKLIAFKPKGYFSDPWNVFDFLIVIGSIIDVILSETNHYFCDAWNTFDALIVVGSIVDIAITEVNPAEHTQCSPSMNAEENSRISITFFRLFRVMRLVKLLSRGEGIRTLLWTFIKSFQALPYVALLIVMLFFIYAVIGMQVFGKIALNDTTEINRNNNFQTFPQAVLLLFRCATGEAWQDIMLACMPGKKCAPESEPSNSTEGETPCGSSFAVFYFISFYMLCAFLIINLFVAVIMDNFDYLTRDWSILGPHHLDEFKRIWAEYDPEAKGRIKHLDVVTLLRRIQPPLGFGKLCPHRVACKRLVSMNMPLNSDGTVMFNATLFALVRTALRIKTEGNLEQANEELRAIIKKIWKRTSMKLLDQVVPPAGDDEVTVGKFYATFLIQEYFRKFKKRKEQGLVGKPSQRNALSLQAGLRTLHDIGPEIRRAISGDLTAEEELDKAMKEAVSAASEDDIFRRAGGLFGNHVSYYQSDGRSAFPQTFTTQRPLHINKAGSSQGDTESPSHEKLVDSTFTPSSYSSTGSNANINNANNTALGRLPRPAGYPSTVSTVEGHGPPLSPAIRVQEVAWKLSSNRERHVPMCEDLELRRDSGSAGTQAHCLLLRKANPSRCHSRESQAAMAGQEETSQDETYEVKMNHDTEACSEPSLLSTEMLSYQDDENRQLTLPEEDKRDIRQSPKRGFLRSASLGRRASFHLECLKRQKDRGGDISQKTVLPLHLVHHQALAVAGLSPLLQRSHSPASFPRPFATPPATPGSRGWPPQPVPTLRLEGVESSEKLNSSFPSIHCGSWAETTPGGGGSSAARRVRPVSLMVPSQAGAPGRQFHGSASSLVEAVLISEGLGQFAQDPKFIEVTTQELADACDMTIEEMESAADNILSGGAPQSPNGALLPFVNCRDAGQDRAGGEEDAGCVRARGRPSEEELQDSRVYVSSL

Compound `COc1cc(C#N)ccc1S(=O)(=O)Nc1ccc2c(c1)cc(C)c(=O)n2C` has an IC50 [1] greater than 10000 nM, a Kd [2] of 1000 nM and a GI50 [3] of 16600 nM. It also gave a bioavailability [4] of 29%, an inhibition at 30 µM (Cav1.2) of less than 40% and a Fa [5] of 35%. For the same compound, the “inhibition (INH)” value [6] was “Not Active”, the solubility [7] was 100 µM (≈ 38.3 µg/mL) and the IC50 [8] was 619 nM.
